Calls of active or inactive are those of the source. The calls are words filed in the database; no cut-off is given here.

The test system of one test is Bacillus subtilis. Put plainly: Antimicrobial activity against Bacillus subtilis at 100 ug/ml. It counts as functional, organism-based.
The subject of the next test is Staphylococcus aureus. Put plainly: Antimicrobial activity against Staphylococcus aureus at 100 ug/ml. It counts as functional, organism-based.

On to `COc1cc(C/C=C(/C)CC/C=C(\C)CC/C=C(\C)CCC=C(C)C)cc(O)c1O`, for which the result in the test with Bacillus subtilis and in the test on Staphylococcus aureus was Active.

The record behind these values is ChEMBL document CHEMBL1158944, “Chemistry of Sponges, XII. A New Dihydric Phenol from the Sponge Fasciospongia sp” (J Nat Prod, 1991).
